According to ChEMBL document CHEMBL2440076, “New triarylpyrazoles as broad-spectrum anticancer agents: design, synthesis, and biological evaluation” (Eur J Med Chem, 2013):

Key:
Type in all cases: functional
HL-60(TB) [1] = test: Growth inhibition of human HL-60(TB) cells assessed as cell growth at 5X10'-9 M after 48 hrs by sulforhodamine B assay; conditions: HL-60, 48 h, read-out: Activity
MCF7 = test: Growth inhibition of human MCF7 cells assessed as cell growth at 5X10'-8 M after 48 hrs by sulforhodamine B assay; conditions: MCF7, 48 h, read-out: Activity
K562 = test: Growth inhibition of human K562 cells assessed as cell growth at 5X10'-8 M after 48 hrs by sulforhodamine B assay; conditions: K562, 48 h, read-out: Activity
MOLT-4 = test: Growth inhibition of human MOLT4 cells assessed as cell growth at 5X10'-7 M after 48 hrs by sulforhodamine B assay; conditions: MOLT-4, 48 h, read-out: Activity
HL-60(TB) [2] = test: Growth inhibition of human HL-60(TB) cells assessed as cell growth at 5X10'-5 M after 48 hrs by sulforhodamine B assay; conditions: HL-60, 48 h, read-out: Activity
UACC-257 = test: Growth inhibition of human UACC257 cells assessed as cell growth at 5X10'-5 M after 48 hrs by sulforhodamine B assay; conditions: UACC-257, 48 h, read-out: Activity
MDA-MB-468 = test: Growth inhibition of human MDA-MB-468 cells assessed as cell growth at 5X10'-5 M after 48 hrs by sulforhodamine B assay; conditions: MDA-MB-468, 48 h, read-out: Activity
SNB-19 = test: Growth inhibition of human SNB19 cells assessed as cell growth at 5X10'-7 M after 48 hrs by sulforhodamine B assay; conditions: SNB-19, 48 h, read-out: Activity
NCI-H322M = test: Growth inhibition of human NCI-H322M cells assessed as cell growth at 5X10'-5 M after 48 hrs by sulforhodamine B assay; conditions: read-out: Activity
OVCAR-8 = test: Growth inhibition of human OVCAR8 cells assessed as cell growth at 5X10'-8 M after 48 hrs by sulforhodamine B assay; conditions: OVCAR-8, 48 h, read-out: Activity
TK-10 = test: Growth inhibition of human TK10 cells assessed as cell growth at 5X10'-9 M after 48 hrs by sulforhodamine B assay; conditions: TK-10, 48 h, read-out: Activity
RXF 393 = test: Growth inhibition of human RXF393 cells assessed as cell growth at 5X10'-9 M after 48 hrs by sulforhodamine B assay; conditions: RXF 393, 48 h, read-out: Activity
UACC-62 [3] = test: Growth inhibition of human UACC62 cells assessed as cell growth at 5X10'-9 M after 48 hrs by sulforhodamine B assay; conditions: UACC-62, 48 h, read-out: Activity
COLO 205 = test: Growth inhibition of human COLO205 cells assessed as cell growth at 5X10'-5 M after 48 hrs by sulforhodamine B assay; conditions: COLO 205, 48 h, read-out: Activity
NCI-H226 = test: Growth inhibition of human NCI-H226 cells assessed as cell growth at 5X10'-9 M after 48 hrs by sulforhodamine B assay; conditions: NCI-H226, 48 h, read-out: Activity
OVCAR-3 = test: Growth inhibition of human OVCAR3 cells assessed as cell growth at 5X10'-7 M after 48 hrs by sulforhodamine B assay; conditions: OVCAR-3, 48 h, read-out: Activity
HCT-116 = test: Growth inhibition of human HCT116 cells assessed as cell growth at 5X10'-5 M after 48 hrs by sulforhodamine B assay; conditions: HCT-116, 48 h, read-out: Activity
SK-MEL-28 = test: Growth inhibition of human SK-MEL-28 cells assessed as cell growth at 5X10'-8 M after 48 hrs by sulforhodamine B assay; conditions: SK-MEL-28, 48 h, read-out: Activity
CAKI-1 = test: Growth inhibition of human CAKI-1 cells assessed as cell growth at 5X10'-8 M after 48 hrs by sulforhodamine B assay; conditions: CAKI-1, 48 h, read-out: Activity
HOP-92 = test: Growth inhibition of human HOP92 cells assessed as cell growth at 5X10'-8 M after 48 hrs by sulforhodamine B assay; conditions: HOP-92, 48 h, read-out: Activity
HOP-62 [4] = test: Growth inhibition of human HOP62 cells assessed as cell growth at 5X10'-6 M after 48 hrs by sulforhodamine B assay; conditions: HOP-62, 48 h, read-out: Activity
KM12 = test: Growth inhibition of human KM12 cells assessed as cell growth at 5X10'-6 M after 48 hrs by sulforhodamine B assay; conditions: KM12, 48 h, read-out: Activity
HOP-62 [5] = test: Growth inhibition of human HOP62 cells assessed as cell growth at 5X10'-5 M after 48 hrs by sulforhodamine B assay; conditions: HOP-62, 48 h, read-out: Activity
SK-OV-3 [6] = test: Growth inhibition of human SKOV3 cells assessed as cell growth at 5X10'-5 M after 48 hrs by sulforhodamine B assay; conditions: SK-OV-3, 48 h, read-out: Activity
U-251 = test: Growth inhibition of human U251 cells assessed as cell growth at 5X10'-9 M after 48 hrs by sulforhodamine B assay; conditions: U-251, 48 h, read-out: Activity
HL-60(TB) [7] = test: Growth inhibition of human HL-60(TB) cells assessed as cell growth at 5X10'-7 M after 48 hrs by sulforhodamine B assay; conditions: HL-60, 48 h, read-out: Activity
RPMI-8226 = test: Growth inhibition of human RPMI8226 cells assessed as cell growth at 5X10'-6 M after 48 hrs by sulforhodamine B assay; conditions: RPMI-8226, 48 h, read-out: Activity
UACC-62 [8] = test: Growth inhibition of human UACC62 cells assessed as cell growth at 5X10'-6 M after 48 hrs by sulforhodamine B assay; conditions: UACC-62, 48 h, read-out: Activity
BT-549 = test: Growth inhibition of human BT549 cells assessed as cell growth at 5X10'-8 M after 48 hrs by sulforhodamine B assay; conditions: BT-549, 48 h, read-out: Activity
[9] = Growth inhibition of human HCC2998 cells assessed as cell growth at 5X10'-8 M after 48 hrs by sulforhodamine B assay; conditions: HCC 2998, 48 h, read-out: Activity
SK-MEL-5 = test: Growth inhibition of human SK-MEL-5 cells assessed as cell growth at 5X10'-7 M after 48 hrs by sulforhodamine B assay; conditions: SK-MEL-5, 48 h, read-out: Activity
LOX IMVI = test: Growth inhibition of human LOXIMVI cells assessed as cell growth at 5X10'-8 M after 48 hrs by sulforhodamine B assay; conditions: read-out: Activity
MDA-MB-231 = test: Growth inhibition of human MDA-MB-231 cells assessed as cell growth at 5X10'-5 M after 48 hrs by sulforhodamine B assay; conditions: MDA-MB-231, 48 h, read-out: Activity
[10] = Growth inhibition of human NCI-ADR-RES cells assessed as cell growth at 5X10'-9 M after 48 hrs by sulforhodamine B assay; conditions: read-out: Activity
SK-OV-3 [11] = test: Growth inhibition of human SKOV3 cells assessed as cell growth at 5X10'-9 M after 48 hrs by sulforhodamine B assay; conditions: SK-OV-3, 48 h, read-out: Activity

Row | SMILES | growth at 0.005 µM (HL-60(TB) [1]) | growth at 0.05 µM (MCF7) | growth at 0.05 µM (K562) | growth at 0.5 µM (MOLT-4) | growth at 50 µM (HL-60(TB) [2]) | growth at 50 µM (UACC-257) | growth at 50 µM (MDA-MB-468) | growth at 0.5 µM (SNB-19) | growth at 50 µM (NCI-H322M) | growth at 0.05 µM (OVCAR-8) | growth at 0.005 µM (TK-10) | growth at 0.005 µM (RXF 393) | growth at 0.005 µM (UACC-62 [3]) | growth at 50 µM (COLO 205) | growth at 0.005 µM (NCI-H226) | growth at 0.5 µM (OVCAR-3) | growth at 50 µM (HCT-116) | growth at 0.05 µM (SK-MEL-28) | growth at 0.05 µM (CAKI-1) | growth at 0.05 µM (HOP-92) | further results
1 | COc1cc(-c2nn(-c3cccc(NC(=O)Nc4cccc(C(F)(F)F)c4)c3)cc2-c2ccncc2)ccc1Cl | 90% | 93% | 95% | 74% | 5% | -87% | -44% | 74% | -14% | 101% | 94% | 100% | 95% | -89% | 100% | 56% | -16% | 100% | 98% | 90% | growth at 5 µM (HOP-62 [4]): -9%; growth at 5 µM (KM12): -37%; growth at 50 µM (HOP-62 [5]): -32%; growth at 50 µM (SK-OV-3 [6]): 2%; growth at 0.005 µM (U-251): 97%; growth at 0.5 µM (HL-60(TB) [7]): 85%; growth at 5 µM (RPMI-8226): -10%; growth at 5 µM (UACC-62 [8]): -73%; growth at 0.05 µM (BT-549): 96%; growth at 0.05 µM [9]: 98%; growth at 0.5 µM (SK-MEL-5): 78%; growth at 0.05 µM (LOX IMVI): 95%; growth at 50 µM (MDA-MB-231): -56%; growth at 0.005 µM [10]: 99%; growth at 0.005 µM (SK-OV-3 [11]): 100%
2 | COc1cc(-c2nn(-c3cccc(NC(=O)Nc4cc(C(F)(F)F)cc(C(F)(F)F)c4)c3)cc2-c2ccncc2)ccc1Cl | 100% | 91% | 99% | 77% | 6% | -54% | -53% | 61% | -58% | 97% | 94% | 98% | 97% | -95% | 97% | 45% | -67% | 97% | 95% | 67% | growth at 5 µM (HOP-62 [4]): -92%; growth at 5 µM (KM12): -71%; growth at 50 µM (HOP-62 [5]): -95%; growth at 50 µM (SK-OV-3 [6]): -62%; growth at 0.005 µM (U-251): 97%; growth at 0.5 µM (HL-60(TB) [7]): 75%; growth at 5 µM (RPMI-8226): 3%; growth at 5 µM (UACC-62 [8]): -66%; growth at 0.05 µM (BT-549): 102%; growth at 0.05 µM [9]: 105%; growth at 0.5 µM (SK-MEL-5): 74%; growth at 0.05 µM (LOX IMVI): 105%; growth at 50 µM (MDA-MB-231): -85%; growth at 0.005 µM [10]: 105%; growth at 0.005 µM (SK-OV-3 [11]): 102%
3 | COc1cc(-c2nn(-c3cccc(NC(=O)c4cccc(C(F)(F)F)c4)c3)cc2-c2ccncc2)ccc1Cl | 89% | 90% | 94% | 91% | 5% | 48% | -32% | 100% | 46% | 99% | 95% | 99% | 97% | -72% | 95% | 98% | 9% | 102% | 98% | 81% | growth at 5 µM (HOP-62 [4]): 47%; growth at 5 µM (KM12): 14%; growth at 50 µM (HOP-62 [5]): 51%; growth at 50 µM (SK-OV-3 [6]): 17%; growth at 0.005 µM (U-251): 94%; growth at 0.5 µM (HL-60(TB) [7]): 103%; growth at 5 µM (RPMI-8226): 12%; growth at 5 µM (UACC-62 [8]): 27%; growth at 0.05 µM (BT-549): 98%; growth at 0.05 µM [9]: 100%; growth at 0.5 µM (SK-MEL-5): 86%; growth at 0.05 µM (LOX IMVI): 91%; growth at 50 µM (MDA-MB-231): -21%; growth at 0.005 µM [10]: 96%; growth at 0.005 µM (SK-OV-3 [11]): 96%
4 | O=C(Nc1cccc(-n2cc(-c3ccncc3)c(-c3ccc(Cl)c(O)c3)n2)c1)Nc1cc(C(F)(F)F)cc(C(F)(F)F)c1 | 115% | 85% | 108% | 81% | -4% | -82% | -55% | 64% | -75% | 93% | 107% | 95% | 95% | -91% | 98% | 43% | -96% | 95% | 92% | 75% | growth at 5 µM (HOP-62 [4]): -64%; growth at 5 µM (KM12): -60%; growth at 50 µM (HOP-62 [5]): -90%; growth at 50 µM (SK-OV-3 [6]): -49%; growth at 0.005 µM (U-251): 95%; growth at 0.5 µM (HL-60(TB) [7]): 93%; growth at 5 µM (RPMI-8226): 4%; growth at 5 µM (UACC-62 [8]): -38%; growth at 0.05 µM (BT-549): 111%; growth at 0.05 µM [9]: 105%; growth at 0.5 µM (SK-MEL-5): 62%; growth at 0.05 µM (LOX IMVI): 100%; growth at 50 µM (MDA-MB-231): -72%; growth at 0.005 µM [10]: 102%; growth at 0.005 µM (SK-OV-3 [11]): 103%
5 | O=C(Nc1cccc(-n2cc(-c3ccncc3)c(-c3ccc(Cl)c(O)c3)n2)c1)c1ccc(N2CCOCC2)c(C(F)(F)F)c1 | 98% | 85% | 100% | 87% | 4% | -9% | -24% | 105% | 56% | 106% | 94% | 105% | 98% | 65% | 98% | 106% | 10% | 102% | 99% | 78% | growth at 5 µM (HOP-62 [4]): 67%; growth at 5 µM (KM12): 25%; growth at 50 µM (HOP-62 [5]): 6%; growth at 50 µM (SK-OV-3 [6]): 36%; growth at 0.005 µM (U-251): 101%; growth at 0.5 µM (HL-60(TB) [7]): 130%; growth at 5 µM (RPMI-8226): 9%; growth at 5 µM (UACC-62 [8]): 39%; growth at 0.05 µM (BT-549): 101%; growth at 0.05 µM [9]: 99%; growth at 0.5 µM (SK-MEL-5): 93%; growth at 0.05 µM (LOX IMVI): 96%; growth at 50 µM (MDA-MB-231): -8%; growth at 0.005 µM [10]: 97%; growth at 0.005 µM (SK-OV-3 [11]): 95%
